Laboratory results taken from PubChem BioAssay (NCI).
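48-hour exposure; five concentrations; linearly interpolated endpoints. TGI is the concentration that stops growth completely.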

Key:
Assay in all cases: inhibition of tumour cell growth, NCI panel, 48 h
HCC-2998 colon = test system: HCC-2998 colon
K-562 leukemia = test system: K-562 leukemia
T-47D breast = test system: T-47D breast
UO-31 renal = test system: UO-31 renal
KM12 colon = test system: KM12 colon
MDA-MB-435 = test system: MDA-MB-435
MALME-3M melanoma = test system: MALME-3M melanoma
SF-268 CNS = test system: SF-268 CNS
MOLT-4 leukemia = test system: MOLT-4 leukemia
SR leukemia = test system: SR leukemia
HCT-116 colon = test system: HCT-116 colon
786-0 renal = test system: 786-0 renal
SF-539 CNS = test system: SF-539 CNS
HCT-15 colon = test system: HCT-15 colon
OVCAR-5 ovarian = test system: OVCAR-5 ovarian
MDA-N = test system: MDA-N
HS 578T breast = test system: HS 578T breast
UACC-257 melanoma = test system: UACC-257 melanoma
EKVX NSCLC = test system: EKVX NSCLC
DU-145 prostate = test system: DU-145 prostate
CAKI-1 renal = test system: CAKI-1 renal
SN12C renal = test system: SN12C renal
COLO 205 colon = test system: COLO 205 colon
M14 melanoma = test system: M14 melanoma
MDA-MB-231 breast = test system: MDA-MB-231 breast
HT29 colon = test system: HT29 colon
OVCAR-8 ovarian = test system: OVCAR-8 ovarian
SW-620 colon = test system: SW-620 colon
OVCAR-4 ovarian = test system: OVCAR-4 ovarian
NCI-H23 lung = test system: NCI-H23 lung
CCRF-CEM leukemia = test system: CCRF-CEM leukemia
ACHN renal = test system: ACHN renal
NCI-H460 lung = test system: NCI-H460 lung
U251 CNS = test system: U251 CNS
RPMI-8226 leukemia = test system: RPMI-8226 leukemia
PC-3 prostate = test system: PC-3 prostate
SNB-19 CNS = test system: SNB-19 CNS
OVCAR-3 ovarian = test system: OVCAR-3 ovarian
LOX IMVI melanoma = test system: LOX IMVI melanoma
MCF7 breast = test system: MCF7 breast
SK-MEL-28 melanoma = test system: SK-MEL-28 melanoma
HOP-62 NSCLC = test system: HOP-62 NSCLC
SK-MEL-5 melanoma = test system: SK-MEL-5 melanoma
IGROV1 ovarian = test system: IGROV1 ovarian
HOP-92 NSCLC = test system: HOP-92 NSCLC
A498 renal = test system: A498 renal
A549 NSCLC = test system: A549 NSCLC
NCI/ADR-RES ovarian = test system: NCI/ADR-RES ovarian
HL-60(TB) leukemia = test system: HL-60(TB) leukemia
SNB-75 CNS = test system: SNB-75 CNS
NCI-H522 lung = test system: NCI-H522 lung
TK-10 renal = test system: TK-10 renal
RXF 393 renal = test system: RXF 393 renal
SF-295 CNS = test system: SF-295 CNS
NCI-H226 lung = test system: NCI-H226 lung

Work on CN(C)Cc1cc(C(=O)/C=C/c2c(Cl)cccc2Cl)cc(CN(C)C)c1O yielded a TGI (HCC-2998 colon) of 34.7 µM, a TGI (K-562 leukemia) of 13.4 µM and a TGI (T-47D breast) of 42 µM. For the same compound, the TGI (UO-31 renal) was 8.85 µM, the TGI (KM12 colon) was 7.2 µM and the TGI (MDA-MB-435) was 21.9 µM. It also gave a TGI (MALME-3M melanoma) of 15.7 µM, a TGI (SF-268 CNS) of 32.4 µM and a TGI (MOLT-4 leukemia) of 30.3 µM. For the same compound, the TGI (SR leukemia) was 22.6 µM, the TGI (HCT-116 colon) was 19.6 µM and the TGI (786-0 renal) was 16.2 µM. It also gave a TGI (SF-539 CNS) of 34.4 µM, a TGI (HCT-15 colon) of 24.2 µM and a TGI (OVCAR-5 ovarian) of 32.2 µM. The TGI (MDA-N) was 12.7 µM, the TGI (HS 578T breast) was 38.7 µM and the TGI (UACC-257 melanoma) was 16.9 µM. The TGI (EKVX NSCLC) was 23.2 µM, the TGI (DU-145 prostate) was 20.8 µM and the TGI (CAKI-1 renal) was 6.74 µM. The TGI (SN12C renal) was 21 µM, the TGI (COLO 205 colon) was 7.66 µM and the TGI (M14 melanoma) was 18.9 µM. For the same compound, the TGI (MDA-MB-231 breast) was 15.1 µM, the TGI (HT29 colon) was 11.6 µM and the TGI (OVCAR-8 ovarian) was 15.2 µM. The TGI (SW-620 colon) was 13.9 µM, the TGI (OVCAR-4 ovarian) was 24.8 µM and the TGI (NCI-H23 lung) was 34.2 µM. It also gave a TGI (CCRF-CEM leukemia) of 59 µM, a TGI (ACHN renal) of 12.4 µM and a TGI (NCI-H460 lung) of 13 µM. The TGI (U251 CNS) was 23.4 µM, the TGI (RPMI-8226 leukemia) was 39 µM and the TGI (PC-3 prostate) was 19 µM. It also gave a TGI (SNB-19 CNS) of 31 µM, a TGI (OVCAR-3 ovarian) of 23.6 µM and a TGI (LOX IMVI melanoma) of 4.45 µM. It also gave a TGI (MCF7 breast) of 14.7 µM, a TGI (SK-MEL-28 melanoma) of 20.9 µM and a TGI (HOP-62 NSCLC) of 20.2 µM. The TGI (SK-MEL-5 melanoma) was 13.9 µM, the TGI (IGROV1 ovarian) was 21.8 µM and the TGI (HOP-92 NSCLC) was 9.06 µM. The TGI (A498 renal) was 22.5 µM, the TGI (A549 NSCLC) was 29.5 µM and the TGI (NCI/ADR-RES ovarian) was 41 µM. It also gave a TGI (HL-60(TB) leukemia) of 11.7 µM, a TGI (SNB-75 CNS) of 15.7 µM and a TGI (NCI-H522 lung) of 10.7 µM. It also gave a TGI (TK-10 renal) of 27.8 µM, a TGI (RXF 393 renal) of 18.6 µM and a TGI (SF-295 CNS) of 23.1 µM. The TGI (NCI-H226 lung) was 32.4 µM.
